Results reported in patent publication US9708325B2, “Sulfonimidoylpurinone compounds and derivatives for the treatment and prophylaxis of virus infection” (Hoffmann-La Roche Inc., priority 2015, dated 2017).
Values after ≈ are worked out from the molar mass of the structure shown. Read-outs that look alike come from different tables or passages of the source. Marks after values point to notes of the source that are not given here.

Tests used:
LYSA solubility = type: physicochemical; settings: for LYSA: 0.05 M phosphate buffer (pH 6.5); for solubility thermodynamic: 0.05 M phosphate buffer, pH 6.5, aqueous buffer, thermodynamic from solid
Description: LYSA solubility assay is used to determine the aqueous solubility of a compound. Samples were prepared in duplicate from 10 mM DMSO stock solution. […] After one night, the solutions were filtered using a microtiter filter plate. Then the filtrate and its 1/10 dilution were analyzed by HPLC-UV.

[1] = Metabolic stability in human liver microsomes; settings: 1 μM test compound, 0.5 mg/mL microsomal protein; 6.15 mL/min/kg is the limitation of assay sensitivity
Description: The human microsomal stability assay is used for early assessment of metabolic stability of a test compound in human liver microsomes.
Human liver microsomes (Cat. NO.: 452117, Corning, USA; Cat. NO.: H2610, Xenotech, USA) were preincubated with test compound for 10 minutes at 37° C. in 100 mM potassium phosphate buffer, pH 7.4. The reactions were initiated by adding NADPH regenerating system. The final incubation mixtures contained 1 μM test compound, 0.5 mg/mL liver microsomal protein, 1 mM MgCL2, 1 mM NADP, 1 unit/mL isocitric dehydrogenase and 6 mM isocitric acid in 100 mM potassium phosphate buffer, pH 7.4. After incubation times of 0, 3, 6, 9, 15 and 30 minutes at 37° C., 300 μL of cold ACN (including internal standard) was added to 100 μL incubation mixture to terminate the reaction. Following precipitation and centrifugation, the amount of compound remaining in the samples were determined by LC-MS/MS. Controls of no NADPH regenerating system at zero and 30 minutes were also prepared and analyzed.

human TLR7 = human TLR7 (Homo sapiens (Human), UniProt Q9NYK1); experiment: HEK-Blue-hTLR7 cells assay (SEAP reporter); type: cell-based; settings: 20 hrs
Chain of human TLR7 (Q9NYK1 27-1049): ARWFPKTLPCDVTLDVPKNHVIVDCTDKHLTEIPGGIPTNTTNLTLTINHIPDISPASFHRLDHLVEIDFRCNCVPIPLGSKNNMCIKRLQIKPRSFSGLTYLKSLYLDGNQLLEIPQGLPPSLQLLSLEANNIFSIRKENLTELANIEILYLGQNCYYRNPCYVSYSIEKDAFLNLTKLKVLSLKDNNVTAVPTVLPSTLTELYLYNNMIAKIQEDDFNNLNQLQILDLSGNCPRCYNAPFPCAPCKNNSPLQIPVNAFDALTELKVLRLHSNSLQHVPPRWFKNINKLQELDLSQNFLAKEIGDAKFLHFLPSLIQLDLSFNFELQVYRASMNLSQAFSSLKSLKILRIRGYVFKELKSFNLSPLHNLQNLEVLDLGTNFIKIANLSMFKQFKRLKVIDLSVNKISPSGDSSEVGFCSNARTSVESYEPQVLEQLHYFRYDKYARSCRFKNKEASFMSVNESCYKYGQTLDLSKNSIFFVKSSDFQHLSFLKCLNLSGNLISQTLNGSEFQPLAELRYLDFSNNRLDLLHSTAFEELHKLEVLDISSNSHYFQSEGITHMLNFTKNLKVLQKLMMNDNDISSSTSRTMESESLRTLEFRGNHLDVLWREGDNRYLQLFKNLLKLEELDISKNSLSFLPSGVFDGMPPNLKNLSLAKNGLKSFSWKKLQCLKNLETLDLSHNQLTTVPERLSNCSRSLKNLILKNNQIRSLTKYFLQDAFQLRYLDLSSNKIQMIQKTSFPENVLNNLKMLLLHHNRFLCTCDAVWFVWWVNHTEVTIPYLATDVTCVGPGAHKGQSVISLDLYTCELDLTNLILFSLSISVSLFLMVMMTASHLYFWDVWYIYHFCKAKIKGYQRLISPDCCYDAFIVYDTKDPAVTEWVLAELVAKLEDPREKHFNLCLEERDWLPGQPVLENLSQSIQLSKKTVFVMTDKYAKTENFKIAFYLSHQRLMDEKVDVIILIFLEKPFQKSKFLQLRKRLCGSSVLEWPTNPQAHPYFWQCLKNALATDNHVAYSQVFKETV
Description: (§1) A stable HEK-Blue-hTLR7 cell line was purchased from InvivoGen (Cat.#: hkb-htlr7, San Diego, Calif., USA). These cells were designed for studying the stimulation of human TLR7 by monitoring the activation of NF-κB. […] Therefore the reporter expression was regulated by the NF-κB promoter upon stimulation of human TLR7 for 20 hrs. The cell culture supernatant SEAP reporter activity was determined using QUANTI-Blue™ kit (Cat.#: rep-qb1, Invivogen, San Diego, Ca, USA) at a wavelength of 640 nm, a detection medium that turns purple or blue in the presence of alkaline phosphatase.
(§2) HEK-Blue-hTLR7 cells were incubated at a density of 250,000˜450,000 cells/mL in a volume of 180 μL in a 96-well plate in Dulbecco's Modified Eagle's medium (DMEM) containing 4.5 g/L glucose, 50 U/mL penicillin, […], […], 2 mM L-glutamine, 10% (V/V) heat-inactivated fetal bovine serum for 24 hrs. Then the HEK-Blue-hTLR-7 cells were incubated with addition of 20 μL test compound in a serial dilution in the presence of final DMSO at 1% and perform incubation under 37° C. in a CO2 incubator for 20 hrs. Then 20 μL of the supernatant from each well was incubated with 180 μL Quanti-blue substrate solution at 37° C. for 2 hrs and the absorbance was read at 620˜655 nm using a spectrophotometer. The signalling pathway that TLR7 activation leads to downstream NF-κB activation has been widely accepted, and therefore similar reporter assay was also widely used for evaluating TLR7 agonist (Tsuneyasu Kaisho and Takashi Tanaka, Trends in Immunology, Volume 29, Issue 7, July 2008, […]; Hiroaki Hemmi et al, Nature Immunology 3, 196-200 (2002)).

human TLR8 = human TLR8 (Homo sapiens (Human), UniProt Q9NR97); experiment: HEK-Blue-hTLR8 cells assay and selectivity index; type: cell-based; settings: for Selective index: EC50(TLR8) value/EC50(TLR7) value
Chain of human TLR8 (Q9NR97 27-1041): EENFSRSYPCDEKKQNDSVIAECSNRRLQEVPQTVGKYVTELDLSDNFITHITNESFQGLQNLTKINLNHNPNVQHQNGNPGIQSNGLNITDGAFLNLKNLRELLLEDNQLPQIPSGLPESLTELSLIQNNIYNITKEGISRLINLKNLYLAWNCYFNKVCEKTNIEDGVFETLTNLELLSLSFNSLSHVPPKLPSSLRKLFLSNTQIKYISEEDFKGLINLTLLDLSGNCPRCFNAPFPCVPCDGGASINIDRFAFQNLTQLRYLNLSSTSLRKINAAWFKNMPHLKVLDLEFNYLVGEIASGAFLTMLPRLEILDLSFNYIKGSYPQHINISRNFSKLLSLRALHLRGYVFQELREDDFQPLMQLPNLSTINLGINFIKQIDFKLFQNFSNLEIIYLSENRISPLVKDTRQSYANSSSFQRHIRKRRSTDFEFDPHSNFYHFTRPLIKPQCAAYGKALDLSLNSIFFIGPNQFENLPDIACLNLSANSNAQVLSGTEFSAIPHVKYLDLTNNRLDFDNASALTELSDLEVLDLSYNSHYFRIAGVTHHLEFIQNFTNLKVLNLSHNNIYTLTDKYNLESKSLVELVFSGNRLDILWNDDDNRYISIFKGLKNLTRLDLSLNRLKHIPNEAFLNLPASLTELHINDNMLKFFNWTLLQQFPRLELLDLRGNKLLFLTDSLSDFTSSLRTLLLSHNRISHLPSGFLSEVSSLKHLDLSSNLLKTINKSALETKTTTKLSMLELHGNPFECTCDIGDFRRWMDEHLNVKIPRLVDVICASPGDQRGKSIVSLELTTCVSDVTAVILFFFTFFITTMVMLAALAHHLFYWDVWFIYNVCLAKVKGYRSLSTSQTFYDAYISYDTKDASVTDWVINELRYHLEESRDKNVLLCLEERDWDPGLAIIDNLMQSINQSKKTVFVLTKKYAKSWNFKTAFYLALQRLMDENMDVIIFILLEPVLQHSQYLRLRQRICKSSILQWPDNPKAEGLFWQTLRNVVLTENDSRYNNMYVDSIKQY
Description: as §1, with “HEK-Blue-hTLR8” for “HEK-Blue-hTLR7”, “HEK-Blue-htlr8,” for “hkb-htlr7,”, “TLR8” for “TLR7”
as §2, with “HEK-Blue-hTLR8 cells” for “HEK-Blue-hTLR7 cells”, “the HEK-Blue-hTLR8” for “the HEK-Blue-hTLR-7”, “2 hours” for “2 hrs”, “that TLR8” for “that TLR7”, “evaluating TLR8” for “evaluating TLR7”
The ratio of TLR8 agonism activity compared to TLR7 agonism activity was defined as the selectivity index (EC50 (TLR8) value/EC50(TLR7) value) and calculated accordingly.

[2] = read-out: HEK-Blue-hTLR7 (EC50 (μM))

Structure (SMILES) | Human Liver Microsome Clearance [1] [mL/min/kg] | solubility thermodynamic (LYSA solubility) [µg/mL] | EC50 (human TLR7; [2]) [µM] | also measured
CS(=N)(=O)c1nc(N)c2[nH]c(=O)n(Cc3ccccc3)c2n1 (single isomer, unassigned) [Example 1-A, 6-Amino-9-benzyl-2-(methylsulfonimidoyl)-7H-purin-8-one] | <6.15 | – | – | LYSA (LYSA solubility): 85 µg/mL
COCCS(=N)(=O)c1nc(N)c2[nH]c(=O)n(Cc3ccccc3)c2n1 (single isomer, unassigned) [Example 3-A, 6-Amino-9-benzyl-2-(2-methoxyethylsulfonimidoyl)-7H-purin-8-one] | <6.15 | – | – | –
CCS(=N)(=O)c1nc(N)c2[nH]c(=O)n(Cc3ccc(C)cc3)c2n1 (single isomer, unassigned) [Example 71-B, 6-Amino-2-(ethylsulfonimidoyl)-9-(p-tolylmethyl)-7H-purin-8-one] | <6.15 | – | – | LYSA (LYSA solubility): 13 µg/mL
CS(=N)(=O)c1nc(N)c2[nH]c(=O)n(Cc3ccccc3)c2n1 (stereo not drawn) [Example 1, 6-Amino-9-benzyl-2-(methylsulfonimidoyl)-7H-purin-8-one] | – | – | 0.3 | Human Liver Microsome Clearance (mL/min/kg) [1]: <6.15* mL/min/kg
CCS(=N)(=O)c1nc(N)c2[nH]c(=O)n(Cc3ccccc3)c2n1 (stereo not drawn) [Example 2, 6-Amino-9-benzyl-2-(ethylsulfonimidoyl)-7H-purin-8-one] | <6.15 | 29 (≈ 87.2 µM) | 0.2 | –
COCCS(=N)(=O)c1nc(N)c2[nH]c(=O)n(Cc3ccccc3)c2n1 (stereo not drawn) [Example 3, 6-Amino-9-benzyl-2-(2-methoxyethylsulfonimidoyl)-7H-purin-8-one] | <6.15 | 300 (≈ 828 µM) | 0.33 | –
CS(=N)(=O)c1nc(N)c2[nH]c(=O)n(Cc3cccnc3)c2n1 (stereo not drawn) [Example 16, 6-Amino-2-(methylsulfonimidoyl)-9-(3-pyridylmethyl)-7H-purin-8-one] | – | – | 0.22 | EC50 (human TLR8): > 1000 µM; Selective index (human TLR8): >4546
CS(=N)(=O)c1nc(N)c2[nH]c(=O)n(Cc3ccncc3)c2n1 (stereo not drawn) [Example 20, 6-Amino-2-(methylsulfonimidoyl)-9-(4-pyridylmethyl)-7H-purin-8-one] | – | – | 0.26 | EC50 (human TLR8): > 1000 µM; Selective index (human TLR8): >3846
CCCS(=N)(=O)c1nc(N)c2[nH]c(=O)n(Cc3ccc(C#N)cc3)c2n1 (stereo not drawn) [Example 32, 4-[[6-Amino-8-oxo-2-(propylsulfonimidoyl)-7H-purin-9-yl]methyl]benzonitrile] | <6.15 | 18 (≈ 48.5 µM) | – | EC50 (human TLR7; HEK-Blue-hTLR7 (EC50 (μM))): 0.054 µM
CCCS(=N)(=O)c1nc(N)c2[nH]c(=O)n(Cc3ccc(C(N)=O)cc3)c2n1 (stereo not drawn) [Example 33, 4-[[6-amino-8-oxo-2-(propylsulfonimidoyl)-7H-purin-9-yl]methyl]benzamide] | <6.15 | 79 (≈ 203 µM) | 0.066 | –

Now from value to compound, other results behind:

Human Liver Microsome Clearance [1] [mL/min/kg] | solubility thermodynamic (LYSA solubility) [µg/mL] | EC50 (human TLR7; [2]) [µM] | Structure (SMILES) | also measured
<6.15 | 90 (≈ 257 µM) | – | CCS(=N)(=O)c1nc(N)c2[nH]c(=O)n(Cc3ccc(F)cc3)c2n1 (single isomer, unassigned) [Example 72-A, 6-Amino-2-(ethylsulfonimidoyl)-9-[(4-fluorophenyl)methyl]-7H-purin-8-one] | –
<6.15 | – | – | CCS(=N)(=O)c1nc(N)c2[nH]c(=O)n(Cc3ccc(F)cc3)c2n1 (single isomer, unassigned) [Example 72-B, 6-Amino-2-(ethylsulfonimidoyl)-9-[(4-fluorophenyl)methyl]-7H-purin-8-one] | LYSA (LYSA solubility): 115 µg/mL
<6.15 | 40 (≈ 111 µM) | 0.32 | CCCCS(=N)(=O)c1nc(N)c2[nH]c(=O)n(Cc3ccccc3)c2n1 (stereo not drawn) [Example 5, 6-Amino-9-benzyl-2-(butylsulfonimidoyl)-7H-purin-8-one] | –
<6.15 | – | 0.04 | CCCS(=N)(=O)c1nc(N)c2[nH]c(=O)n(Cc3ccc(F)cc3F)c2n1 (stereo not drawn) [Example 31, 6-Amino-9-[(2,4-difluorophenyl)methyl]-2-(propylsulfonimidoyl)-7H-purin-8-one] | –
<6.15 | – | 0.12 | CCCS(=N)(=O)c1nc(N)c2[nH]c(=O)n(Cc3ccnc(C)c3)c2n1 (stereo not drawn) [Example 35, 6-Amino-9-[(2-methyl-4-pyridyl)methyl]-2-(propylsulfonimidoyl)-7H-purin-8-one] | –
<6.15 | – | 0.023 | CCCS(=N)(=O)c1nc(N)c2[nH]c(=O)n(Cc3ccc(S(C)(=O)=O)cc3)c2n1 (stereo not drawn) [Example 37, 6-Amino-9-[(4-methylsulfonylphenyl)methyl]-2-(propylsulfonimidoyl)-7H-purin-8-one] | –
<6.15 | 168 (≈ 375 µM) | 0.15 | CCCS(=N)(=O)c1nc(N)c2[nH]c(=O)n(Cc3ccc(C(=O)NCCOC)cc3)c2n1 (stereo not drawn) [Example 40, 4-[[6-Amino-8-oxo-2-(propylsulfonimidoyl)-7H-purin-9-yl]methyl]-N-(2-methoxyethyl)benzamide] | –
<6.15 | > 465 | 0.24 | CCCS(=N)(=O)c1nc(N)c2[nH]c(=O)n(Cc3cncnc3)c2n1 (stereo not drawn) [Example 43, 6-Amino-2-(propylsulfonimidoyl)-9-(pyrimidin-5-ylmethyl)-7H-purin-8-one] | –
<6.15 | 357 (≈ 985 µM) | 0.136 | CCCS(=N)(=O)c1nc(N)c2[nH]c(=O)n(Cc3cnc(C)nc3)c2n1 (stereo not drawn) [Example 44, 6-Amino-9-[(2-methylpyrimidin-5-yl)methyl]-2-(propylsulfonimidoyl)-7H-purin-8-one] | –
<6.15 | 152 (≈ 434 µM) | – | CCS(=N)(=O)c1nc(N)c2[nH]c(=O)n(Cc3ccc(F)cc3)c2n1 (stereo not drawn) [Example 72, 6-Amino-2-(ethylsulfonimidoyl)-9-[(4-fluorophenyl)methyl]-7H-purin-8-one] | –
– | – | 3.14 | CNC(=O)c1nc(N)c2[nH]c(=O)n(Cc3ccccc3)c2n1 [Example P-5, reference compound] | EC50 (human TLR8; HEK-Blue-hTLR8 cells, SEAP reporter, 20 hrs, read-out: HEK Blue hTLR-8 EC50): > 1000 µM
